Series [1] addresses T1, Fatty-acid amide hydrolase 1 (Rattus norvegicus, UniProt P97612).
T1 sequence (P97612 whole entry): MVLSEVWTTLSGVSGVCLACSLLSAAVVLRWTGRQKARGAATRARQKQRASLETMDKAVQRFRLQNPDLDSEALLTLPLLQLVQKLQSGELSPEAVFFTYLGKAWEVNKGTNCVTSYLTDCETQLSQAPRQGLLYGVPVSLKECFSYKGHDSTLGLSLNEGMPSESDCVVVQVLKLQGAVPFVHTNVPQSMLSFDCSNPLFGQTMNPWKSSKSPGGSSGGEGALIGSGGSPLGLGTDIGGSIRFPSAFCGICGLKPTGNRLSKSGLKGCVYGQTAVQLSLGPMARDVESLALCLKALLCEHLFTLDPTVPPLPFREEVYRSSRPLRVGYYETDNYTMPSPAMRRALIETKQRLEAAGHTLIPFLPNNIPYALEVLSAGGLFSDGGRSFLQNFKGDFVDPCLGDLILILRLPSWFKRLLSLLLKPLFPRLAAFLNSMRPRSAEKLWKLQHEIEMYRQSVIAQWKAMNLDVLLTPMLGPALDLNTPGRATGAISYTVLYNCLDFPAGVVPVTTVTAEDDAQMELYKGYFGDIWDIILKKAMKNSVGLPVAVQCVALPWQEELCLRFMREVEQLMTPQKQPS
The series is described as follows: Inhibition of FAAH in rat brain microsomes using N-(2-hydroxyethyl)-4-pyren-1-ylbutanamide as substrate after 60 mins by fluorescence-based reversed phase HPLC analysis.

Series [2] is described as follows: Metabolic stability in rat liver S9 fraction assessed as amount of parent compound remaining after 30 mins under aerobic conditions in presence of NADPH by reversed HPLC -UV detection analysis. It is filed as ADME, subcellular. As to conditions: for Stability: s9, 0.5 h; for remaining at 0.5 h: liver S9 fraction, read-out: Stability.
The nature of series [3]: Thermodynamic aqueous solubility of the compound at pH 7.4 at 20 degC sonicated for 10 mins after 24 hrs UV-HPLC analysis. It is filed as physicochemical. As to conditions: read-out: Therm_solubility.
Series [4] is described as follows: Inhibition of pig platelet cytosolic phospholipase A2alpha using 1-stearoyl-2-arachidonoyl-sn-glycero-3-phosphocholine/1,2-dioleoyl-sn-glycerol as substrate after 60 mins by reversed phase HPLC-UV detection analysis. Further details: species or system Sus scrofa.
Series [5] can be described thus: Ratio of IC50 for pig platelet cytosolic phospholipase A2alpha to IC50 for FAAH in rat brain microsomes.
Series [6] in a line: Drug metabolism in rat liver S9 fraction assessed as alcohol derivative metabolite formation after 30 mins under aerobic conditions in presence of NADPH by reversed HPLC/MS analysis. It is filed as ADME, subcellular. As to conditions: s9, 0.5 h.
Series [7] can be described thus: Drug metabolism in rat liver S9 fraction assessed as hydroxylation product metabolite formation after 30 mins under aerobic conditions in presence of NADPH by reversed HPLC/MS analysis. The note with it: s9, 0.5 h. It counts as ADME, subcellular.

The results in this text go back to ChEMBL document CHEMBL3872277, “1-Heteroarylpropan-2-ones as inhibitors of fatty acid amide hydrolase: Studies on structure-activity relationships and metabolic stability” (Bioorg Med Chem, 2017).

Values after ≈ are worked out from the molar mass of the structure shown.

For orientation: IC50 means the concentration that inhibits the measured activity by half. The low end stands for greater potency in that assay, the high end for weaker potency in that assay.

With `CCCCCCCCc1ccc(OCC(=O)Cn2ncc3ccccc32)cc1`, in series [1], 2300 nM corresponded to half-maximal inhibition (IC50).
Take `O=C(COc1ccc(-c2cccc(Cl)c2)cc1)Cn1nnc2ccccc21`: the Stability result in series [2] is reported as “Unstable”. In series [1], this molecule came in with an IC50 of 11 nM.
Regarding `O=C(COc1ccc(-c2ccccc2)cc1)Cn1cnnn1`, the remaining at 0.5 h in series [2] turned out to be 0%. Further, the solubility thermodynamic at 24 h in series [3] is 11 µg/mL (≈ 37.4 µM). Besides, the IC50 in series [1] worked out at 43 nM; in series [4], 4.9 µM. The Ratio IC50 in series [5] is 100 to 500.
In turn, `CCCCCCCCc1ccc(OCC(=O)Cn2cnc3ncccc32)cc1` showed a 50% inhibitory concentration (IC50) in series [1] of 620 nM.
In the case of `O=C(COc1ccc(-c2cccc(F)c2)cc1)Cn1nnc2ccccc21`, in series [2], the Stability result is reported as “Unstable”. The same molecule registered an IC50 in series [1] of 14 nM.
In series [1], `CCCCCCCCc1ccc(OCC(=O)Cn2cccn2)cc1` gave an IC50 of 840 nM.
Consider `O=C1NC(=O)C(c2ccccc2)(c2ccccc2)N1` [PHENYTOIN], for which the solubility thermodynamic at 24 h in series [3] is 18 µg/mL (≈ 71.4 µM).
Take `CC(C(=O)COc1ccc(-c2ccccc2)cc1)n1ncnn1` (stereo unspecified): in series [2], the remaining at 0.5 h came out at 0%. In series [1], this molecule came in with an IC50 of 6300 nM.
As to `CCCCCCCCc1ccc(OCC(=O)Cn2ccnc2)cc1`, the IC50 in series [1] was 410 nM. That is a sub-micromolar value.
Take `CC(C(=O)COc1ccc(-c2ccccc2)cc1)n1nnc2ccccc21` (stereo unspecified): the remaining at 0.5 h in series [2] was 21%. The IC50 in series [1] came out at 630 nM.
`CCCCCCCCCCOc1ccc(OCC(=O)COc2ccc(C(=O)O)cc2)cc1` showed a half-inhibitory concentration (IC50) in series [4] of 0.0065 µM.
For the molecule `O=C(COc1ccc(-c2ccc(F)cc2)cc1)Cn1nnc2ccccc21`, in series [2], the Stability entry is listed as “Unstable”. In addition, in series [1], 12 nM corresponded to half-maximal inhibition (IC50).
On to `O=C(COc1ccc(-c2ccccc2)cc1)Cn1nnc2ccccc21`, for which, in series [2], the remaining at 0.5 h amounted to 0%. The solubility thermodynamic at 24 h in series [3] was found to be 2 µg/mL (≈ 5.82 µM). In addition, the figures for the IC50 in series [1] and in series [4] were 12 nM and 2.4 µM, respectively. The Drug metabolism result in series [6] is on record as “Metabolite_Detected”. Besides, the Ratio IC50 in series [5] was 100 to 500.
As to `CC(Oc1ccc(-c2ccc(F)cc2)cc1)C(=O)Cn1nnc2ccccc21` (stereo unspecified), in series [2], the remaining at 0.5 h was 29%. This molecule also came in with an IC50 in series [1] of 12 nM.
In the case of `CC(Oc1ccc(-c2ccccc2)cc1)C(=O)Cn1cnnn1` (stereo unspecified), the remaining at 0.5 h in series [2] was determined as 9%. Further, in series [3], the solubility thermodynamic at 24 h was found to be 4 µg/mL (≈ 13 µM). Besides, the half-inhibitory concentration (IC50) in series [1] came out at 19 nM; in series [4], 6.9 µM. In addition, the Ratio IC50 in series [5] lay within 100 to 500.
Consider `CCCCCCCCc1ccc(OCC(=O)Cn2ccc3ncccc32)cc1`, for which the half-inhibitory concentration (IC50) in series [1] was greater than 10000 nM.
For the molecule `CCCCCCCCc1ccc(OCC(=O)Cn2nnc3ccccc32)cc1`, in series [1], the IC50 is 15 nM.
`CCCCCCCCc1ccc(OCC(=O)Cn2cncn2)cc1` gave an IC50 in series [1] of 53 nM. This IC50 lies about 3.5-fold higher than the previous one.
For the molecule `CCCCCCCCc1ccc(OCC(=O)Cn2nnc3ncccc32)cc1`, the IC50 in series [1] is 49 nM.
`CCCCCCCCc1ccc(OCC(=O)Cn2nccn2)cc1`: in series [1], the IC50 came to 100 nM.
Consider `O=C(COc1ccc(-c2ccc(Cl)cc2)cc1)Cn1nnc2ccccc21`, for which the Stability result in series [2] is reported as “Unstable”. This molecule registered an IC50 in series [1] of 21 nM.
In series [1], `CCCCCCCCc1ccc(OCC(=O)Cn2cnc3cccnc32)cc1` registered an IC50 of 410 nM.
Turning to `O=C(COc1ccc(-c2ccccc2)cc1)Cn1ncnn1`, in series [2], the remaining at 0.5 h is 0%. Further, the solubility thermodynamic at 24 h in series [3] is 10 µg/mL (≈ 34 µM). For the same molecule, the IC50 is 11 nM in series [1] and 1.8 µM in series [4]. Moreover, the Ratio IC50 in series [5] is 100 to 500.
Consider `CCCCCCCCc1ccc(OCC(=O)Cn2ncc3ncccc32)cc1`, for which it took 93 nM to reach half-maximal inhibition in series [1] (IC50). That is a double-digit nanomolar value.
Take `CC(C(=O)COc1ccc(-c2ccccc2)cc1)n1cnnn1` (stereo unspecified): the remaining at 0.5 h in series [2] was 11%. Further, the IC50 in series [1] is greater than 10000 nM.
As to `CC(Oc1ccc(-c2ccccc2)cc1)C(=O)Cn1nnc2ccccc21` (stereo unspecified), the remaining at 0.5 h in series [2] turned out to be 23%. Further, in series [3], the solubility thermodynamic at 24 h was less than 1 µg/mL. Also, the IC50 stood at 13 nM in series [1] and 6.8 µM in series [4]. In addition, the Ratio IC50 in series [5] lay within 100 to 500.
Molecule `CCCCCCCCc1ccc(OCC(=O)Cn2ncc3cccnc32)cc1` yielded an IC50 in series [1] of 1600 nM.
For the molecule `CCC(Oc1ccc(-c2ccccc2)cc1)C(=O)Cn1nnc2ccccc21` (stereo unspecified), the remaining at 0.5 h in series [2] turned out to be 51%. For the same molecule, in series [1], it took 1800 nM to reach half-maximal inhibition (IC50). Moreover, the Drug metabolism result in series [7] is on record as “Metabolite_Notdetected”.
In the case of `CCCCCCCCc1ccc(OCC(=O)Cn2cnc3ccccc32)cc1`, the midpoint of inhibition in series [1], the IC50, lay at 480 nM.
`CCCCCCCCc1ccc(OCC(=O)Cn2nnc3cccnc32)cc1` gave an IC50 in series [1] of 13 nM.
Turning to `CC(Oc1ccc(-c2ccccc2)cc1)C(=O)Cn1ncnn1` (stereo unspecified), the remaining at 0.5 h in series [2] was found to be 0%. Moreover, the solubility thermodynamic at 24 h in series [3] was determined as 2 µg/mL (≈ 6.49 µM). The IC50 was found to be 9 nM in series [1] and 3.3 µM in series [4]. In series [5], the Ratio IC50 fell in the range of 100 to 500.
